Literature values, collected in US7407949B2, “Benzamide derivatives as oxytocin agonists and vasopressin antagonists” (priority 2003, dated 2008).

Target: T1, V1a vasopressin receptor (Homo sapiens, UniProt P37288)
T1 construct: host or cells: patients (in vivo clinical study)
Settings: dysmenorrhea patients, compared to placebo

T1 sequence (P37288 whole entry): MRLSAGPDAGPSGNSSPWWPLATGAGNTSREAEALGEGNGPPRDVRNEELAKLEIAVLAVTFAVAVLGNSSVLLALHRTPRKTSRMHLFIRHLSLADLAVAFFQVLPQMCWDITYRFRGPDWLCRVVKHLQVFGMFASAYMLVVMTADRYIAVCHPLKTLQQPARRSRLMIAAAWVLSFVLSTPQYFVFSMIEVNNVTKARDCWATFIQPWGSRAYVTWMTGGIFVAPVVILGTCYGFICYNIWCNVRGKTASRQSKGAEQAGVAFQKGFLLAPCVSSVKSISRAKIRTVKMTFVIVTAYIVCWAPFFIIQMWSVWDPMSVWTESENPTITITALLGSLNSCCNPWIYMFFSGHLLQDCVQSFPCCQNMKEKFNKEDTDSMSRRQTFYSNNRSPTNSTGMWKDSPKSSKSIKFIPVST

## COc1ccc(S(=O)(=O)N2c3ccc(Cl)cc3[C@](O)(c3ccccc3Cl)[C@@H]2C(=O)N2CCC[C@H]2C(N)=O)cc1OC [SR49059]
  amount of additional pain-killer taken: dose-related decrease in the amount of additional pain-killer taken
  pain: dose-related decrease in pain
